Where a name gives a salt, the structure may show the parent alone.

Three molecules from US8293781B2, “Indole derivatives having cPLA2 inhibiting activity and applications and production methods of the same” (Daiichi Sankyo Company, Limited, priority 2007, dated 2012) can be followed below.

Data set [1] deals with guinea pig antigen induced bronchial asthma model. Briefly: Guinea pig antigen induced bronchial asthma model: infiltrating cells in BALF. The class given is in vivo. As to the method:
Hartley male guinea pigs (Kyudo Co., Ltd.) were sensitized by inhaling the aerosolized 1% OVA-containing physiological saline solution for consecutive 8 days. One week after the final sensitization, antigen antibody reaction was elicited by inhaling the aerosolized 2% OVA-containing physiological saline solution. 24 hours and 1 hour before antigen challenge, metyrapone (10 mg/kg, 1.0 ml/kg) was injected to the hind limb peripheral vein. 30 minutes before antigen challenge, pyrilamine maleate (10 mg/kg, 1.0 ml/kg) was administered intraperitoneally. The test compound (5 mg/kg and 20 mg/kg, 5.0 ml/kg) was administered once a day from the day after the final sensitization to the day before challenge. On the day of challenge, it was administered orally 1 hour before challenge and 8 hours after challenge. Note that the number of mice used in the test was made eight per group.
The number of cells in a bronchial alveolar lavage fluid was counted after measurement of the airway hyperreactivity. Each guinea pig was exsanguinated under anesthesia, its chest was opened, a cannular was inserted into the trachea, then physiological saline was injected into and sucked out from the lungs to recover the bronchial alveolar lavage fluid (BALF). The BALF was centrifugally separated, the obtained precipitate (pellets) was suspended in physiological saline and the total number of cells per 1 μl was calculated by an automatic blood cell counting system (Sysmex F-820). The total number of cells was calculated, then the sample was again centrifugally separated and the obtained pellets were hemolyzed, diluted, centrifuged, and dried, then stained by May-Greenwald's-Giemsa dye. Using a microscope, the ratios of the macrophages, eosinophil granulocytes, neutrophils, and lymphocytes to the total blood cell count (total number of cells) were found and the ratios used to calculate the numbers of cells per μl. The inhibiting rate was found as a percent (%) of the value of the number of cells of the control vehicle administered group minus the number of cells of each compound administered group with respect to the value of the number of cells of the vehicle administered group minus the number of cells of the negative control saline inhalation group.

Another data set deals with rats. The experiment in a line: Repeated oral administration to rats once a day over two weeks (toxicity). To be noted: once a day over two weeks repeatedly orally. The class given is in vivo, rat. As to the method:
Further, the present invention compound (I) or its salts or their solvates have low toxicity. In experiments administering the compound of Example 231 of the present invention to rats once a day over two weeks repeatedly orally, the nontoxic amount was 180 mg/kg/day.

Take `O=C(O)CCc1ccc2c(c1)c(CCc1ccccc1)cn2-c1ccc(OCCO)cc1` [Example 229, 3-{1-[4-(2-hydroxyethoxy)phenyl]-3-(2-phenylethyl)-1H-indol-5-yl}propanoic acid 2-amino-2-(hydroxymethyl)propane-1,3-diol salt (1:1)]: in data set [1] (5 mg/kg oral), the “Inhibitory rate of infiltrating cells in BALF: Eosinophils” value (from here on “Inhibitory rate … Eosinophils”) amounted to 51%, the “Inhibitory rate of infiltrating cells in BALF: Lymphocytes” value (from here on “Inhibitory rate … Lymphocytes”) worked out at 11%, the “Inhibitory rate of infiltrating cells in BALF: Macrophages” value (from here on “Inhibitory rate … Macrophages”) is on record as 58% and the “Inhibitory rate of infiltrating cells in BALF: Neutrophils” value (from here on “Inhibitory rate … Neutrophils”) worked out at 0%. Further, the “Inhibitory rate of infiltrating cells in BALF: Total number of cells” value (from here on “Inhibitory rate … of cells”) in data set [1] (5 mg/kg oral) turned out to be 30%. Also, in data set [1] (20 mg/kg oral), the “Inhibitory rate … Eosinophils” value was determined as 46%, the “Inhibitory rate … Lymphocytes” value was 12%, the “Inhibitory rate … Macrophages” value was 46% and the “Inhibitory rate … Neutrophils” value is on record as 16%. In addition, the “Inhibitory rate … of cells” value in data set [1] (20 mg/kg oral) turned out to be 35%.
Turning to `O=C(O)CCc1ccc2c(c1)c(CCc1ccccc1)cn2-c1ccc(Oc2ccccc2)cc1` [Example 231, 3-[1-(4-phenoxyphenyl)-3-(2-phenylethyl)-1H-indol-5-yl]propanoic acid 2-amino-2-(hydroxymethyl)propane-1,3-diol salt (1:1)], in the data set on rats, the nontoxic amount stood at 180 mg/kg/day. In data set [1] (5 mg/kg oral), the “Inhibitory rate … Eosinophils” value came to 58%, the “Inhibitory rate … Lymphocytes” value is given as 45%, the “Inhibitory rate … Macrophages” value amounted to 80% and the “Inhibitory rate … Neutrophils” value is 38%. Besides, in data set [1] (5 mg/kg oral), the “Inhibitory rate … of cells” value is 58%. Besides, in data set [1] (20 mg/kg oral), the “Inhibitory rate … Eosinophils” value came out at 69%, the “Inhibitory rate … Lymphocytes” value is 55%, the “Inhibitory rate … Macrophages” value is given as 85% and the “Inhibitory rate … Neutrophils” value is given as 64%. Besides, the “Inhibitory rate … of cells” value in data set [1] (20 mg/kg oral) was found to be 72%.
Take `O=C(O)CCc1ccc2c(c1)c(CCc1ccccc1)cn2-c1ccc(OC(F)F)cc1` [Example 190, 3-{1-[4-(difluoromethoxy)phenyl]-3-(2-phenylethyl)-1H-indol-5-yl}propanoic acid 2-amino-2-(hydroxymethyl)propane-1,3-diol salt (1:1)]: in data set [1] (5 mg/kg oral), the “Inhibitory rate … Eosinophils” value is recorded as 41%, the “Inhibitory rate … Lymphocytes” value was 30%, the “Inhibitory rate … Macrophages” value was 66% and the “Inhibitory rate … Neutrophils” value stood at 0%. For the same molecule, the “Inhibitory rate … of cells” value in data set [1] (5 mg/kg oral) worked out at 33%. Besides, in data set [1] (20 mg/kg oral), the “Inhibitory rate … Eosinophils” value is 76%, the “Inhibitory rate … Lymphocytes” value came to 42%, the “Inhibitory rate … Macrophages” value worked out at 76% and the “Inhibitory rate … Neutrophils” value was determined as 37%. In addition, the “Inhibitory rate … of cells” value in data set [1] (20 mg/kg oral) came to 62%.
